Like-named read-outs stand apart in the source and are kept apart here.
Assays:
2D6 = 2D6 (Homo sapiens, UniProt P10635); assay: inhibition of human liver cytochrome P450 2D6; format: in vitro ADME; conditions: human liver cytochrome P450 isoenzyme
[1] = Example 1 single dose study: pharmacokinetics; format: in vivo, human; conditions: for Cmax / half-life / AUC(0-inf) / AUC(0-t) / AUC / Tmax: both sexes, human; for Tmax: read-out: mean time to maximum plasma concentration (Tmax)
Procedure: A single-center, randomized, double-blind, dose-rising study to determine the safety, pharmacokinetics, and pharmacodynamics of single doses of 1-(3-chloro-5-{[4-(4-chlorothiophen-2-yl)-5-(4-cyclohexylpiperazin-1-yl)thiazol-2-yl]carbamoyl} pyridin-2-yl)piperadine-4-carboxylic acid (Formula I) in normal healthy volunteers was performed. The starting dose of the drug of Formula I was 1 mg (expressed as free base). Successive dose cohorts received 3, 10, 20, 50, 75 and 100 mg. The drug substance in the form of the monomaleate salt was suspended in Ora-Plus® (purified water, microcrystalline cellulose, sodium carboxymethylcellulose, xanthan gum, citric acid, sodium phosphate, simethicone, potassium sorbate and methylparaben), a commercially available oral suspending vehicle manufactured by Paddock Laboratories, Inc. Minneapolis, Minn. The Ora-Plus® was diluted with purified water, USP in a 1:1 suspension before being used to suspend the drug substance powder in preparation for oral administration. Prior to administration, 30 mL of the Ora-Plus®/water vehicle was added to each bottle, shaken and then consumed by the subject for each of the 3, 10, 50 and 75 mg dose cohorts. This was followed by an additional 30 mL of vehicle that was added to the bottle as a wash solution, shaken and then consumed by the subject. For the 20 mg and 100 mg dose cohorts, 60 mL of the Ora-Plus®/water vehicle was added to two (2) separate bottles containing the appropriate dose of drug (30 mL each bottle), shaken then consumed by the subjects. This was followed by an additional 60 mL of vehicle that was added as 30 ml to each bottle as a wash solution, shaken and then consumed by the subject.
A minimum of 9 subjects (male and female healthy volunteers) were enrolled in each cohort. The active group within each cohort included male and female volunteers. Three subjects per cohort received placebo. Each successive dose cohort was treated no sooner than 10 days after the previous group had received the study drug. […] Each subject received only 1 dose of Formula I. Intra-subject dose escalation and treating previously treated subjects in any cohort expansions were not allowed. All subjects were followed until their platelet count returned to normal levels (defined as ±20% of baseline).
Dose escalation was stopped if the PD limiting dose was reached or at the dose at which a dose limiting toxicity (DLT) was observed. The pharmacodynamic limit (PD limit) is defined as the dose at which there was a 50% increase in platelet count relative to the […] in the 6 actively treated subjects. The pharmacodynamic limiting dose (if reached), was repeated by running an additional cohort of 9 subjects (3 placebo and 6 active) at the dose level of the observed PD limit.
Pharmacokinetic sampling was taken. Pharmacodynamic evaluations of platelet counts and other hematological parameters were performed from study drug administration (Day 1) until 7 days after dosing. Outpatient follow-up for safety evaluation occurred until 14 days post-treatment for all subjects and longer for subjects requiring additional follow-up. For the repeat PD dose cohort or 100 mg dose cohort, the evaluations of platelet counts and other hematological parameters were performed each day from Day 1 through 14 and then every other day up to Day 28. If the PD dose limit was not reached at a dose of 75 mg, platelet count evaluations as outlined for the PD limiting dose were performed on the 100 mg dose cohort.

platelet count = assay: Example 2 multi-dose study: pharmacodynamics (platelet count); format: in vivo, human
Procedure: A double-blind, placebo-controlled, dose rising study was performed in healthy male and female volunteers. Each dose cohort received either placebo or active treatment as an oral suspension once daily for fourteen (14) consecutive days. The dose of study drug was prepared and administered as described in Example 1 above. The doses administered in this multiple dose study were based on the safety and tolerability assessment of the doses administered in Example 1.
Based on the results of Example 1, the starting dose was 3 mg. Based on the safety and tolerability results from Example 1, the dose was scheduled to be escalated to 10, 20, 50 and 100 mg per day for 14 consecutive days. Successive dose cohorts were not treated until the previous cohort completed 14 days of treatment and the safety follow-up visit on Day 21.

[2] = species specificity of activity; parameters: species or system chimpanzee and man

Sequence of 2D6 (P10635 whole entry): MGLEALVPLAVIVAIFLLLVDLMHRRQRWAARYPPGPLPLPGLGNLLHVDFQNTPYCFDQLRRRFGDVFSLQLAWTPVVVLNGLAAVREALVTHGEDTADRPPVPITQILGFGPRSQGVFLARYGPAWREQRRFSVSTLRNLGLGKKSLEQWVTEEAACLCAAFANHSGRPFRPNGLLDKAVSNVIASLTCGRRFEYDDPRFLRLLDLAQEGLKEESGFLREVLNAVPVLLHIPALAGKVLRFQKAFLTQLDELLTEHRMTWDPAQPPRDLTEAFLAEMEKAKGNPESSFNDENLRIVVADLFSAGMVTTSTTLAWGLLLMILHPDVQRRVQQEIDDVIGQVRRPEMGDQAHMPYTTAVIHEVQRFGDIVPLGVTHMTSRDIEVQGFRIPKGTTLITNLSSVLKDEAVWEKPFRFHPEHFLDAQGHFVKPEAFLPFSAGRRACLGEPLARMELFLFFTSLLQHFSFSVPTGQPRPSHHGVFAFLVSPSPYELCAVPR

O=C(Nc1nc(-c2cc(Cl)cs2)c(N2CCN(C3CCCCC3)CC2)s1)c1cnc(N2CCC(C(=O)O)CC2)c(Cl)c1 [Formula I, 1-(3-chloro-5-{[4-(4-chlorothiophen-2-yl)-5-(4-cyclohexylpiperazin-1-yl)thiazol-2-yl]carbamoyl}pyridin-2-yl)piperadine-4-carboxylic acid]
inhibition of CYP2D6 (2D6): did not inhibit | Cmax ([1]; plasma, oral, 1 mg, single 1 mg daily dose, read-out: mean maximum plasma concentration (Cmax)): ~5.7 ng/mL | Cmax ([1]; plasma, oral, 3 mg, single 3 mg daily dose, read-out: mean maximum plasma concentration (Cmax)): 14 to 17 ng/mL | Cmax ([1]; plasma, oral, 10 mg, single 10 mg daily dose, (±20%), read-out: mean maximum plasma concentration (Cmax)): 53 to 69 ng/mL | Cmax ([1]; plasma, oral, 20 mg, single 20 mg daily dose, read-out: mean maximum plasma concentration (Cmax)): 121 to 168 ng/mL | Cmax ([1]; plasma, oral, 50 mg, single 50 mg daily dose, read-out: mean maximum plasma concentration (Cmax)): ~311 ng/mL | Cmax ([1]; plasma, oral, 75 mg, single 75 mg daily dose, read-out: mean maximum plasma concentration (Cmax)): ~473 ng/mL | Cmax ([1]; plasma, oral, 100 mg, 100 mg daily dose, read-out: mean maximum plasma concentration (Cmax)): ~388 ng/mL | Cmax ([1]; plasma, po, 1 mg, single oral dose 1 mg, healthy volunteers, final mean, read-out: Cmax): 5.67 ng/mL | half-life ([1]; plasma, po, 1 mg, single oral dose 1 mg, healthy volunteers, final mean, read-out: T½ (converted)): 21.5 h | Cmax ([1]; plasma, po, 1 mg, single oral dose 1 mg, healthy volunteers, preliminary mean, read-out: Cmax): 5.15 ng/mL | half-life ([1]; plasma, po, 1 mg, single oral dose 1 mg, healthy volunteers, preliminary mean, read-out: T½ (converted)): 18.9 h | Cmax ([1]; plasma, po, 3 mg, single oral dose 3 mg, healthy volunteers, preliminary mean, read-out: Cmax): 16 ng/mL | half-life ([1]; plasma, po, 3 mg, single oral dose 3 mg, healthy volunteers, preliminary mean, read-out: T½ (converted)): 17.5 h | Cmax ([1]; plasma, po, 10 mg, single oral dose 10 mg, healthy volunteers, preliminary mean, read-out: Cmax): 63.6 ng/mL | half-life ([1]; plasma, po, 10 mg, single oral dose 10 mg, healthy volunteers, preliminary mean, read-out: T½ (converted)): 18 h | Cmax ([1]; plasma, po, 20 mg, single oral dose 20 mg, healthy volunteers, preliminary mean, read-out: Cmax): 146 ng/mL | half-life ([1]; plasma, po, 20 mg, single oral dose 20 mg, healthy volunteers, preliminary mean, read-out: T½ (converted)): 12.9 h | Cmax ([1]; plasma, po, 50 mg, single oral dose 50 mg, healthy volunteers, final mean, read-out: Cmax): 312 ng/mL | half-life ([1]; plasma, po, 50 mg, single oral dose 50 mg, healthy volunteers, final mean, read-out: T½ (converted)): 19 h | Cmax ([1]; plasma, po, 50 mg, single oral dose 50 mg, healthy volunteers, preliminary mean, read-out: Cmax): 294 ng/mL | half-life ([1]; plasma, po, 50 mg, single oral dose 50 mg, healthy volunteers, preliminary mean, read-out: T½ (converted)): 14.8 h | Cmax ([1]; plasma, po, 75 mg, single oral dose 75 mg, healthy volunteers, final mean, read-out: Cmax): 474 ng/mL | half-life ([1]; plasma, po, 75 mg, single oral dose 75 mg, healthy volunteers, final mean, read-out: T½ (converted)): 18.8 h | Cmax ([1]; plasma, po, 75 mg, single oral dose 75 mg, healthy volunteers, preliminary mean, read-out: Cmax): 446 ng/mL | half-life ([1]; plasma, po, 75 mg, single oral dose 75 mg, healthy volunteers, preliminary mean, read-out: T½ (converted)): 15.3 h | Cmax ([1]; plasma, po, 100 mg, single oral dose 100 mg, healthy volunteers, final mean, read-out: Cmax): 388 ng/mL | half-life ([1]; plasma, po, 100 mg, single oral dose 100 mg, healthy volunteers, final mean, read-out: T½ (converted)): 18 h | Cmax ([1]; plasma, po, 100 mg, single oral dose 100 mg, healthy volunteers, preliminary mean, read-out: Cmax): 365 ng/mL | half-life ([1]; plasma, po, 100 mg, single oral dose 100 mg, healthy volunteers, preliminary mean, read-out: T½ (converted)): 15.8 h | AUC(0-inf) ([1]; plasma, single oral dose 1 mg, healthy volunteers, final mean): 183 ng·h/mL | AUC(0-t) ([1]; plasma, single oral dose 1 mg, healthy volunteers, final mean, read-out: AUC0-last): 130 ng·h/mL | AUC ([1]; plasma, single oral dose 1 mg, healthy volunteers, preliminary mean): 161 ng·h/mL | AUC ([1]; plasma, single oral dose 3 mg, healthy volunteers, preliminary mean): 477 ng·h/mL | AUC ([1]; plasma, single oral dose 10 mg, healthy volunteers, preliminary mean): 2110 ng·h/mL | AUC ([1]; plasma, single oral dose 20 mg, healthy volunteers, preliminary mean): 4020 ng·h/mL | AUC(0-inf) ([1]; plasma, single oral dose 50 mg, healthy volunteers, final mean): 8480 ng·h/mL | AUC(0-t) ([1]; plasma, single oral dose 50 mg, healthy volunteers, final mean, read-out: AUC0-last): 6880 ng·h/mL | AUC ([1]; plasma, single oral dose 50 mg, healthy volunteers, preliminary mean): 9180 ng·h/mL | AUC(0-inf) ([1]; plasma, single oral dose 75 mg, healthy volunteers, final mean): 13500 ng·h/mL | AUC(0-t) ([1]; plasma, single oral dose 75 mg, healthy volunteers, final mean, read-out: AUC0-last): 10800 ng·h/mL | AUC ([1]; plasma, single oral dose 75 mg, healthy volunteers, preliminary mean): 12600 ng·h/mL | AUC(0-inf) ([1]; plasma, single oral dose 100 mg, healthy volunteers, final mean): 11100 ng·h/mL | AUC(0-t) ([1]; plasma, single oral dose 100 mg, healthy volunteers, final mean, read-out: AUC0-last): 10900 ng·h/mL | AUC ([1]; plasma, single oral dose 100 mg, healthy volunteers, preliminary mean): 10500 ng·h/mL | half-life ([1]; serum, oral, single dose 1 mg to 100 mg, independent of the dose, read-out: serum elimination half-life (mean t1/2)): 18 to 24 h | Cmax ([1]; serum, po, 3 mg, single oral dose 3 mg, healthy volunteers, final mean, read-out: Cmax): 17.1 ng/mL | half-life ([1]; serum, po, 3 mg, single oral dose 3 mg, healthy volunteers, final mean, read-out: T½ (converted)): 23.6 h | Cmax ([1]; serum, po, 10 mg, single oral dose 10 mg, healthy volunteers, final mean, read-out: Cmax): 69.1 ng/mL | half-life ([1]; serum, po, 10 mg, single oral dose 10 mg, healthy volunteers, final mean, read-out: T½ (converted)): 21.8 h | Cmax ([1]; serum, po, 20 mg, single oral dose 20 mg, healthy volunteers, final mean, read-out: Cmax): 169 ng/mL | half-life ([1]; serum, po, 20 mg, single oral dose 20 mg, healthy volunteers, final mean, read-out: T½ (converted)): 18.9 h | AUC(0-inf) ([1]; serum, single oral dose 3 mg, healthy volunteers, final mean): 534 ng·h/mL | AUC(0-t) ([1]; serum, single oral dose 3 mg, healthy volunteers, final mean, read-out: AUC0-last): 401 ng·h/mL | AUC(0-inf) ([1]; serum, single oral dose 10 mg, healthy volunteers, final mean): 2380 ng·h/mL | AUC(0-t) ([1]; serum, single oral dose 10 mg, healthy volunteers, final mean, read-out: AUC0-last): 1650 ng·h/mL | AUC(0-inf) ([1]; serum, single oral dose 20 mg, healthy volunteers, final mean): 4440 ng·h/mL | AUC(0-t) ([1]; serum, single oral dose 20 mg, healthy volunteers, final mean, read-out: AUC0-last): 3600 ng·h/mL | AUC(0-t) ([1]; plasma, oral, 100 mg daily dose, read-out: mean AUC0-last): ~10900 ng·h/mL | Tmax ([1]; plasma, oral, 100 mg daily dose): ~6.2 h | AUC(0-t) ([1]; plasma, oral, single 1 mg daily dose, read-out: mean AUC0-last): ~130 ng·h/mL | Tmax ([1]; plasma, oral, single 1 mg daily dose): ~6.1 h | AUC(0-t) ([1]; plasma, oral, single 3 mg daily dose, read-out: mean AUC0-last): 235 to 400 ng·h/mL | Tmax ([1]; plasma, oral, single 3 mg daily dose): ~5.5 h | AUC(0-t) ([1]; plasma, oral, single 10 mg daily dose, read-out: mean AUC0-last): 840 to 1640 ng·h/mL | Tmax ([1]; plasma, oral, single 10 mg daily dose): 4.8 to 6 h | AUC(0-t) ([1]; plasma, oral, single 20 mg daily dose, read-out: mean AUC0-last): 1960 to 3600 ng·h/mL | Tmax ([1]; plasma, oral, single 20 mg daily dose): ~5.2 h | AUC(0-t) ([1]; plasma, oral, single 50 mg daily dose, read-out: mean AUC0-last): ~6880 ng·h/mL | Tmax ([1]; plasma, oral, single 50 mg daily dose): ~4.8 h | AUC(0-t) ([1]; plasma, oral, single 75 mg daily dose, read-out: mean AUC0-last): ~10800 ng·h/mL | Tmax ([1]; plasma, oral, single 75 mg daily dose): ~6 h | dose proportionality of Cmax and AUC ([1]; single doses 1 to 100 mg, slightly lower than expected exposure at 100 mg): increased proportionally up to the 75 mg dose | lag time ([1]; single oral dose, healthy volunteers): 2 to 4 h | dose-concentration-response relationship for changes in platelet count (platelet count; 3 mg to 20 mg dose range, repeat dosing): linear increases in platelet counts over baseline | day by which the revised PD limit (>500,000 platelets) occurred in all six (6) subjects (platelet count; 20 mg cohort): 10 to 11 days | dose cohort in which the original PD limit (five subjects with >50% increase in platelet count) was reached (platelet count; once daily dosing): 10 mg | platelet counts following repeat administration (platelet count; repeat administration of 10 mg and 20 mg): Statistically significant increases in platelet counts | species specificity [2]: activity only in the chimpanzee and man

Source: patent publication US20110224226A1, “COMPOSITIONS AND METHODS FOR INCREASING BLOOD PLATELET LEVELS IN HUMANS” (AKARX, Inc., priority 2006, published 2011)
